In publication PMC8777946, “New Analogs of Polyamine Toxins from Spiders and Wasps: Liquid Phase Fragment Synthesis and Evaluation of Antiproliferative Activity” (Molecules, 2022):
Where two headings read alike, the source gives them in different places.

Experiments:
[1] = test system: MCF-7 breast cancer cells; conditions: 24 h treatment; ± SD; reference PATs, determined previously; cited from earlier work
[2] = test system: MDA-MB-231 breast cancer cells; conditions: 24 h treatment; ± SD; reference PATs, determined previously; cited from earlier work
in vitro = format: cell-based; conditions: human, 24 h, MTT, read-out: % viability of MCF 12A
Experimental: (§1) The IC50 values of the tested compounds are summarized in Table 2 (see also Supplementary Material, Table S2).
(§2) […]. The chemical compounds were reconstituted in DMSO.
(§3) For the MTT [3-(4,5-dimethylthiazol-2-yl)-2,5-diphenyltetrazolium bromide] assay, cells were seeded in a 96-well plate (26.000 cells/well) for 48 h. Then, after overnight starvation through serum deprivation, cells were incubated for 24 h, with the chemical compounds at 100, 10, 1, and 0.1 μM concentrations in the MCF-12A culture medium deprived of serum. Next, MTT (5 mg/mL in sterile PBS) was added in an amount of 10% in the culture media volume for 4-h cell incubation at 37 °C. Subsequently, an MTT solubilization solution was added, in an amount equal to the original culture media volume (100 μL/well), and the formazan crystals were dissolved through thorough pipetting. The spectrophotometric measure of cells’ viability was performed in a Tecan (SPARK) spectrophotometer at an absorbance wavelength of 570 nm. Incubation with H2O2 was established as cytotoxicity positive control. The percentage of viability for each sample was calculated with respect to cells incubated with MCF-12A culture media (without serum) containing 2% DMSO (negative cytotoxicity control).

[3] = test system: MCF-12A normal epithelial mammary cells; experiment: cells; format: cell-based; conditions: for IC50: Homo sapiens, MCF-12A, 24 h incubation, serum-free medium, MTT; for selectivity index (SI) for the MCF-7 cells: IC50 MCF-12A versus IC50 MCF-7; for selectivity index (SI) for the MDA-MB-231 cells: IC50 MCF-12A versus IC50 MDA-MB-231
Experimental: as §1, §2, §3

[4] = test system: MDA-MB-231 breast cancer cells; experiment: Antiproliferative activity on MDA-MB-231 breast cancer cells (24 h, cell count or MTT); format: cell-based; conditions: for times less cytotoxic to the MDA-MB-231 cells than the MCF-7 cells: ratio of IC50 values; for IC50: read-out: IC50 MDA-MB-231
Experimental: (§4) The antiproliferative activity of the synthesized compounds was evaluated using MCF-7 and ΜDA-MB-231 breast carcinoma cells. MCF-7 cells are characterized by epithelial morphology, low metastatic potential, and low aggressiveness, and are estrogen receptor alpha (ERα)-positive, whereas MDA-MB-231cells are characterized by mesenchymal morphology, high metastatic potential, and high aggressiveness, and are ERβ-positive. The cells were treated for 24 h with compounds 1–10 in a range of concentrations, from 0 to 200 or 400 μM. In addition, the cells were treated with acid 21 alone and an equimolar mixture of acid 21 and Spd (the PA substructure of conjugate 2), to determine the effect of conjugation on the antiproliferative activity. The estimated IC50 values for these compounds are provided in Table 1 (see also Supplementary Material, Table S1). For the sake of comparison, the ΙC50 values of PATs HO-416b and Agel 416, determined previously, are included in Table 1. Calculated LogD values at pH 7.4, the physiological pH of blood serum, using ChemAxon’s Chemicalize platform are also included in Table 1.
(§5) MCF-7 and MDA-MB-231 breast cancer cell lines were purchased from the American Type Culture Collection (ATCC). All cells were routinely cultured in a humidified 95% air/5% CO2 incubator at 37 °C in complete medium Dulbecco’s Modified Eagle’s Medium (DMEM) supplemented with 10% (v/v) fetal bovine serum (FBS) 1.0 mM sodium pyruvate, 2 mM l-glutamine, and 100 IU/mL penicillin. The synthesized compounds were dissolved in ddH2O (or DMSO for compound […] and the equimolar mixture of compounds […] and Spd) at a final concentration of 10 mM and further dilutions were conducted with culture medium.
(§6) MCF-7 and ΜDA-MB-231 breast cancer cells were seeded in 12-well plates and were allowed to grow up to 60–70% confluence. After renewing the culture medium, cancer cells were treated for 24 h in serum-containing culture medium with compounds 1–10 in a range of concentrations, from 0 to 200 or 400 μM. In addition, cells were treated with acid 21 alone and an equimolar mixture of acid 21 and Spd in order to determine the effect of conjugation on the antiproliferative activity. Then, the surviving breast cancer cells were measured, either manually (for compounds Agel 416, HO-416b, 1-3, 6-7) or by measuring the absorbance following an MTT assay (for compounds 4-5, 8-10, 21 and 21+Spd), as described below in detail. The percentage of live cells was plotted against the log values of compound concentrations, and a non-linear fit plot was used to estimate the IC50 value for each compound.

[5] = test system: MCF-7 breast cancer cells; experiment: Antiproliferative activity on MCF-7 breast cancer cells (24 h, cell count or MTT); format: cell-based; conditions: for IC50: read-out: IC50 MCF-7
Experimental: as §4, §5, §6

[6] = Homo sapiens, MCF7, 24 h, 24 h treatment, serum-containing medium, manual count (1-3, 6-7) or MTT (4-5, 8-10, 21, 21+Spd), ± SD, tested as trifluoroacetate salts
[7] = Homo sapiens, MDA-MB-231, 24 h, 24 h treatment, serum-containing medium, manual count (1-3, 6-7) or MTT (4-5, 8-10, 21, 21+Spd), ± SD, tested as trifluoroacetate salts
[8] = 24 h treatment, serum-containing medium, manual count (1-3, 6-7) or MTT (4-5, 8-10, 21, 21+Spd), ± SD, tested as trifluoroacetate salts

In the case of `NCCCNCCCCNCCCNCCCNC(=O)Cc1c[nH]c2ccccc12` [Agel 416], the IC50 [1] is listed as 0.55 ± 0.02 µM, the IC50 [2] is listed as 3.31 ± 0.08 µM and the viability (in vitro; 0.1 μΜ) is listed as 95.4%. For the same compound, the viability (in vitro; 1 μΜ) was 84.3%, the viability (in vitro; 10 μΜ) was 63.5% and the viability (in vitro; 100 μΜ) was 69%. For the same compound, the IC50 [3] was 184 µM, the “selectivity index (SI) for the MCF-7 cells” value [3] was roughly 335 and the “selectivity index (SI) for the MDA-MB-231 cells” value [3] was roughly 56. For the same compound, the “times less cytotoxic to the MDA-MB-231 cells than the MCF-7 cells” value [4] was 6 times.
`NCCCNCCCCNCCCNC(=O)Cc1c[nH]c2ccccc12` [Compound 1] gave an IC50 [5, 6] greater than 200 µM and an IC50 [4, 7] greater than 200 µM.
With `NCCCNCCCCNC(=O)Cc1c[nH]c2ccccc12` [Compound 2] the IC50 [5, 6] was 3.15 ± 0.25 µM, the “times less active than HO-416b” value ([5]; MCF-7 cells) was 35 times and the “times more active than the mere combination of 21 and Spd” value ([5]; MCF-7 cells) was roughly 42 times. The IC50 [4, 7] was 12.6 ± 0.57 µM, the “times less active than HO-416b” value ([4]; MDA-MB-231 cells) was 4 times and the “times more active than the mere combination of 21 and Spd” value ([4]; MDA-MB-231 cells) was roughly 22 times.
With `NCCCCNC(=O)Cc1c[nH]c2ccccc12` [Compound 3] the IC50 [5, 8] was 272 ± 11.2 µM, the IC50 [5, 6] was 272 µM and the IC50 [4, 8] was 107 µM. For the same compound, the IC50 [4, 7] was 170 µM.
`CCCC(=O)N[C@H](C(=O)NCCCCNCCCNCCCN)[C@@H](C)O` [Compound 4] showed an IC50 [5, 6] greater than 400 µM and an IC50 [4, 7] greater than 400 µM.
`CCCC(=O)N[C@H](C(=O)NCCCNCCCCNCCCN)[C@@H](C)O` [Compound 5] gave an IC50 [5, 6] greater than 400 µM and an IC50 [4, 7] greater than 400 µM.
`CCCC(=O)N[C@@H](Cc1ccc(O)cc1)C(=O)NCCCNCCCCNCCCN` [Compound 6] showed an IC50 ([5]; Homo sapiens, MCF7, 24 h) greater than 400 µM and an IC50 ([4]; Homo sapiens, MDA-MB-231, 24 h) greater than 400 µM.
For `CCCC(=O)N[C@@H](Cc1ccc(O)cc1)C(=O)NCCCCNCCCCNCCCCN` [Compound 7], the IC50 [5, 6] was greater than 400 µM and the IC50 [4, 7] was greater than 400 µM.
Compound `CCCC(=O)N[C@@H](Cc1ccc(O)cc1)C(=O)NCCCCNCCCNCCCNCCCN` [Compound 8] has an IC50 [5, 6] greater than 400 µM and an IC50 [4, 7] greater than 400 µM.
`C#CC[C@H](NC(=O)c1ccc(C2(C(F)(F)F)N=N2)cc1)C(=O)NCCCCNCCCNCCCN` [Compound 9] gave an IC50 [5, 6] of 2.63 ± 1.58 µM and an IC50 [4, 7] greater than 200 µM.
For `C#CC[C@H](NC(=O)c1ccc(C2(C(F)(F)F)N=N2)cc1)C(=O)NCCCNCCCNCCCCN` [Compound 10], the IC50 [5, 6] was 2.81 ± 1.64 µM and the IC50 [4, 7] was greater than 200 µM.
With `O=C(O)Cc1c[nH]c2ccccc12` [Compound 21, (indol-3-yl)acetic acid, reference compound] the IC50 [5, 6] was 366 ± 73 µM and the IC50 [4, 7] was 262 ± 42 µM.
In the case of `NCCCNCCCNCCCNCCCCNC(=O)Cc1c[nH]c2ccccc12` [HO-416b], the IC50 [1] is listed as 0.09 ± 0.012 µM, the IC50 [2] is listed as 3.98 ± 0.064 µM and the “times more cytotoxic than Agel 416” value ([5]; MCF-7 cells) is listed as roughly 6 times. For the same compound, the viability (in vitro; 0.1 μΜ) was 92.5%, the viability (in vitro; 1 μΜ) was 89.7% and the viability (in vitro; 10 μΜ) was 77.5%. For the same compound, the viability (in vitro; 100 μΜ) was 50.8%, the IC50 [3] was 97.2 µM and the “selectivity index (SI) for the MCF-7 cells” value [3] was roughly 1080. For the same compound, the “selectivity index (SI) for the MDA-MB-231 cells” value [3] was roughly 24, the “times more cytotoxic than Agel 416” value ([3]; MCF-12A cells) was roughly 1.9 times and the “times less cytotoxic to the MDA-MB-231 cells than the MCF-7 cells” value [4] was roughly 44 times.
